Entries after “also recorded” stand apart in the source; their conditions may differ.
Legend:
[1] = tested on: E7 TCR T cells; assay: APC-like function after co-culture with PS-positive E7-positive SCC152 cells: HLA-DR/CD25 on E7 TCR T cells; format: cell-based; settings: for antigen presentation function versus untransduced T cells: FIG. 52, FIG. 53; for antigen presentation function, overall (FIGS. 50-54): repeated experiments; for activation (HLA-DR) of autologous E7 TCR T cells: after co-culture with E7-positive/PS-positive SCC152 cells, vs untransduced T cells or anti-CD19 CAR T cells
Excerpt: (§1) FIGS. 25A-25B: CER1236 T cells activate E7 TCR T cells via presentation of tumor cell-derived E7 antigen in an HLA-I-dependent manner. […] FIG. 25B: In a separate experiment, induction of HLA-DR on E7 TCR cells following co-culture of CER-1236 with E7 oncoprotein positive/PS-positive SCC152 cells was blocked by HLA-I blocking antibody, but not a control isotype antibody. Bars depict percentage of E7 TCR T cells that express the activation marker, HLA-DR. Error bars show SEM.
as §1, with “36A-36B:” for “25A-25B:”, “6B:” for “25B:”
(§2) CER1183, CER1161, CER1234 or CER1236 T cells were cultured alone or co-cultured with phosphatidylserine-positive HPV E7 oncoprotein-positive cells (TMEM30A−/− SCC152) for 48 hours, followed by positive selection of T cells and co-culture for a 4 days with cell trace violet labeled-HPV E7 TCR T cells.
as §2, with “(TMEM30A−/−SCC152)” for “(TMEM30A−/− SCC152)”, “for” for “for a”, “days (FIG. 51, left graph) or 6 days (FIG. 51, right graph)” for “days”
CER1183, CER1161, CER1234 or CER1236 T cells were cultured alone or co-cultured with phosphatidylserine-positive HPV E7 oncoprotein-positive cells (TMEM30A−/− SCC152) for 48 hours, followed by positive selection of T cells and co-culture for 4 days with cell trace violet labeled-HPV E7 TCR T cells.
CER1183, CER1161, CER1234 or CER1236 T cells were cultured alone or co-cultured with phosphatidylserine-positive HPV E7 oncoprotein-positive cells (TMEM30A−/−SCC152) for 48 hours, followed by positive selection of T cells and co-culture for 6 days with cell trace violet labeled-HPV E7 TCR T cells.
Antigen-presenting cell (APC)-like function of CER T cells was assessed after a 48-hour co-culture with phosphatidylserine-positive E7 oncoprotein-positive cells. T cells were separated and co-cultured for 4 days with cell trace violet-labeled E7 TCR T cells. The activation marker HLA-DR on E7 TCR T cells was analyzed using flow cytometry. Phosphatidylserine-positive SCC152 squamous cell carcinoma cells were engineered by knockout of the TMEM30A gene (a flippase chaperone required for PS internalization). The role of HLA-I in APC-like function was determined by performing the same experiment in the presence of HLA-I blocking or the corresponding isotype antibodies.
Phosphatidylserine exposure on A2780 ovarian cancer cells upon treatment with the small molecule PARP inhibitors niraparib or olaparib was evaluated by annexin v staining to determine the appropriate drug dose. Phosphatidylserine targeting Tim-4 CER constructs designed to enhance cytotoxicity and target-dependent tumor cell fragment uptake were engineered. CER T cell designs were as follows: CER-1234 (Tim-4/CD28/TLR2/CD3z; SEQ ID NO:18); CER-1236 (Tim-4/CD28/CD3z/TLR2; SEQ ID NO:19); and CER-1250 (Tim-4 binding mutant/CD28/TLR2/CD3z; SEQ ID NO:24). CER-1250 has the same intracellular signaling domains as […] but has a mutated IgV domain with AAAA substitution to abrogate phosphatidylserine binding. Niraparib (0.5 μM) and olaparib (1.5 μM) were used to expose phosphatidylserine on the surface of A2780 cells for CER T cell recognition and cytotoxicity, T-cell activation, and cytokine responses were evaluated. Uptake of antigen by CER-1236 T cells was modeled with human papilloma virus E7 antigen-expressing squamous carcinoma (SCC152) TMEM30A phospholipid flippase knockout cells. […]

[2] = tested on: Jeko1 TMEM30A−/− cells; assay: Uptake/engulfment of pHrodo-labeled JeKo-1 PS+ (TMEM30A−/−) cells by CER T cells; format: cell-based; settings: for uptake/engulfment of JeKo-1 PS+ (TMEM30A−/−) tumor cell fragments: pHrodo label, in vitro co-culture
Experimental: FIG. 20: FACs and imaging-based detection of pHrodo dye-labeled tumor cell phagocytosis and endocytosis.
Statistical analysis was performed using 2-way ANOVA.

[3] = tested on: A2780 cells; settings: for A2780 cells eliminated, single agent: compared to untreated; for A2780 cells eliminated, combination with niraparib: niraparib 0.5 μM; for A2780 cells eliminated, combination with niraparib / A2780 cells eliminated, combination with olaparib: after 5 days of co-culture; for A2780 cells eliminated, combination with olaparib: olaparib 1.5 μM
Experimental: FIG. 34B: At 120 hours, the ratio of cells remaining in treated samples compared to untreated A2780 samples was quantified using the incucyte data from FIG. 34A. FIG. 34C: Proliferation of CER T cells in co-culture assays.
At day 0, media was exchanged and donor T cells from three subjects (FIG. 28) transduced with CER-1234, CER-1236, or control CER-1183 (FIG. 27A) were added at various effector:target ratios to A2780 cells treated with PARPi to assess chimeric Tim4 receptor-T cell activation, cytokine production, proliferation, and cytotoxic responses. Chimeric Tim4 receptor-T cells immunophenotyping and bulk supernatant analysis was performed on day 2 and day 5 following initiation of co-culture.
CER T-cell cytotoxic function was evaluated using the Incucyte® live-cell analysis system in co-culture assays with A2780 cells. A2780 cells engineered to constitutively express mCherry were pretreated with 1.5 μM olaparib, 0.5 μM niraparib or no drug for 96 hours. CER T cells (expanded for 6 days after transduction) in T-cell optimizer media containing IL-2, IL-7, and IL-15 were co-cultured with A2780 cells at an effector:target (E:T) ratio of 1:2 in the presence of the same concentrations of olaparib or niraparib.

[4] = tested on: REC-1 cells; assay: CER T cell cytotoxicity against REC-1 mCherry cells with ibrutinib (Incucyte); format: cell-based; settings: for cytotoxic activity of CER T cells alone (no ibrutinib) / tumor cell killing in combination with ibrutinib: REC-1 cells
Excerpt: FIG. 38: CER1236 T cells have enhanced and more complete cytotoxic effect against Ibrutinib-treated REC-1 MCL cells but not untreated REC-1 MCL cells.
Ibrutinib was washed off prior to co-culture with CER T cells. […] Total fluorescence of REC-1 mCherry cells decreased as cytotoxicity occurred.

Substance: CER-1234: chimeric Tim4 receptor: Tim4 binding domain-CD28tm-CD28-TLR2 TIR-CD3z, SEQ ID NO:18; tested as transduced T cells
- antigen presentation function versus untransduced T cells [1]: display better antigen presentation function than untransduced T cells
- antigen presentation function, overall (FIGS. 50-54) [1]: did not show any antigen presentation function over untransduced T cells in some experiments
- uptake/engulfment of JeKo-1 PS+ (TMEM30A−/−) tumor cell fragments [2]: increased uptake of JeKo-1 PS^+ tumor cell fragments
- cytotoxic activity of CER T cells alone against A2780 cells [3]: limited cytotoxic activity
- A2780 cells eliminated, single agent [3]: 39%
- A2780 cells eliminated, combination with niraparib [3]: 58%
- A2780 cells eliminated, combination with olaparib [3]: 66%
- cytotoxicity ([4]; BTKi treatment in combination): > 90%
- cytotoxic activity of CER T cells alone (no ibrutinib) [4]: limited cytotoxic activity
- tumor cell killing in combination with ibrutinib [4]: Tumor cell killing was enhanced

Substance: CER-1236: chimeric Tim4 receptor: Tim4 binding domain-CD28tm-CD28-CD3z-TLR2 TIR, SEQ ID NO:19; tested as transduced T cells
- HLA-DR MFI versus untransduced T cells ([1]; FIG. 50, FIG. 51, FIG. 54): significant difference in HLA-DR MFI
- antigen presentation function versus untransduced T cells [1]: display better antigen presentation function than untransduced T cells
- HLA class I dependence of E7 TCR activation ([1]; HLA-I blocking vs isotype antibody): dependent on antigen presentation via the HLA class I system
- activation (HLA-DR) of autologous E7 TCR T cells [1]: induced HLA-DR on E7 TCR cells
- activation (HLA-DR) of autologous E7 TCR T cells ([1]; listed as CER1236): supported greater activation of autologous E7 TCR T cells
- increase of activation status of E7 TCR T cells ([1]; exposed to TMEM30A″ SCC152 cancer cells relative to CER-1236 T cells alone): 5 fold
- antigen presentation function, overall (FIGS. 50-54) [1]: consistently had better antigen presentation function compared to untransduced T cells
- phagocytic index (frequency and magnitude of uptake) ([2]; compared to wtTim-4, CER1250 and CER1236+actin polymerization inhibitor): Higher frequency and magnitude of uptake
- uptake/engulfment of JeKo-1 PS+ (TMEM30A−/−) tumor cell fragments [2]: increased uptake of JeKo-1 PS^+ tumor cell fragments; also recorded: exhibited increased engulfment of Jeko1 TMEM30A^−/− cells
- cytotoxic activity of CER T cells alone against A2780 cells [3]: limited cytotoxic activity
- A2780 cells eliminated, single agent [3]: 19%
- A2780 cells eliminated, combination with niraparib [3]: 81%
- A2780 cells eliminated, combination with olaparib [3]: 73%
- cytotoxic activity of CER T cells alone (no ibrutinib) [4]: Some CER1236 T cytotoxicity against untreated REC-1 cells is observed
- tumor cell killing in combination with ibrutinib [4]: synergize with ibrutinib to enhance killing of REC-1 mantle cell lymphoma cells

— US20250127896A1, “CHIMERIC TIM4 RECEPTORS AND USES THEREOF” (CERO THERAPEUTICS HOLDINGS, INC., priority 2021, published 2025)
